According to article PMC9505425, “Targeting of the Mitochondrial TET1 Protein by Pyrrolo[3,2-b]pyrrole Chelators” (International Journal of Molecular Sciences, 2022):
Several values for one entry are separate records, joined by “and”; a condition that tells them apart may be missing. Equal entries are not always repeated.

Columns and labels:
Assay type in all cases: cell-based, human
[1] = MTT cytotoxicity assay, HF-P4; conditions: human, HF-P4 normal human dermal fibroblasts, repeats, read-out: Cell viability %
Description: (§1) The effects of the tested compounds 1–6 on HF-P4, U-118 MG, H1299, BT-20, and Caov-3 cell lines were evaluated by the MTT assay during 48 h treatment (Table 2 and Tables S2–S31). In all tested compounds, we recognized a difference in cytotoxicity between healthy cells (HF-P4) and cancer cell lines (BT-20, Caov-3, and H-1299). […] In the case of ovarian cancer, the authors discovered oncogenic and poor prognosis roles of TET1 in epithelial ovarian carcinoma (EOC). TET1 is believed to demethylate the epigenome and activate numerous oncogenic pathways in EOC. The aforementioned study presents a new mechanism where TET1 contributes to tumor development through collaboration with CK2α [21]. The overexpression of the TET1 protein was also found in triple negative breast cancer and was associated with an activation of PI3K/mTOR pathway and decreased overall survival.
(§2) A human dermal fibroblast cell line was used for intracellular localization and cytotoxicity assay (MTT). Human fibroblast cells HF-P4 (human fibroblasts—patient 4) are normal dermal fibroblasts, which were obtained from the residual skin of a healthy patient who underwent plastic surgery (with informed consent of the patient). HF-P4 cell lines were obtained from the Department of Plastic Surgery, Third Faculty of Medicine, Charles University and University Hospital Královské Vinohrady, Prague, Czech Republic, as described by Szabo et al., 2011, and Dvořánková et al., 2019 [88, 89], and have been processed in accordance with the relevant local ethics committee and the Declaration of Helsinki protection of patients’ rights and benefits with written and signed informed consent of each patient. Cells were cultivated under standard conditions in Dulbecco’s modified Eagle’s medium (ATCC, Manassas, VA, USA), supplemented with 10% FBS and streptomycin (100 μg/mL) at 37 °C at a 5% CO2 atmosphere.
(§3) For the cytotoxicity assay, we used the following cell lines: human glioblastoma cell line U118-MG, human mammary gland/breast cell line BT-20, human ovary adenocarcinoma cell line Caov-3, and non-small-cell lung carcinoma H-1299. As previously mentioned, these cell lines contain a high level of the TET1 protein, which corresponds to a lower overall survival. In addition to these cell cultures, we used the human dermal fibroblast cell line HF-P4 as a healthy control. Determination of cytotoxicity was performed using the MTT [3-(4,5-dimethylthiazol-2-yl)-2,5-diphenyltetrazolium bromide] colorimetric assay. Viable cells from each cell line were cultured in 96-well plates (VWR, Stříbrná Skalice, Czech Republic) at a density of 1.0 × 10^5 cells per well and allowed to grow for 24 h in 200 μL of recommended medium. After a 1-day incubation, the medium was replaced with solutions of compounds 1–6 at concentration ranges of 0.1–20 μM. Each concentration was measured four times within one test, and the entire test was repeated three times. Tested compounds 1–6 were dissolved in DMSO and then diluted with corresponding medium to a final volume of 200 μL (maximum 1% DMSO). After 48 h exposure, cells were treated with 175 μL of MTT solution (P-LAB, Prague, Czech Republic) for 2 h. In the next step, MTT solution was removed, and 125 μL of DMSO (Penta, Prague, Czech Republic) was added to solubilize dark crystals of formazan formed in intact cells, and absorbance was measured at 570 nm by the enzyme-linked immunoabsorbent assay reader Infinite® 200 PRO (Tecan, Männedorf, Switzerland). The final DMSO concentration was smaller than 1% (v/v). The absorbance of untreated cells was considered 100%, and IC50 values were calculated by the GraphPad Prism 8 software. As a parameter for cytotoxicity, we used a concentration that inhibits 50% of cell growth (IC50).

HF-P4 cells = experiment: MTT cytotoxicity assay, HF-P4; conditions: 48 h; for Cell viability %: repeats
Description: as §1, §2, §3

Caov-3 cells = experiment: MTT cytotoxicity assay, Caov-3
Description: as §1
The human ovary adenocarcinoma cell line (Caov-3), purchased from ATCC (Caov-3 (ATCC® HTB-75™), Manassas, VA, USA), was used for the cytotoxicity assay (MTT). Caov-3 cells were cultivated under standard conditions in Dulbecco’s modified Eagle’s medium (ATCC, Manassas, VA, USA) supplemented with 10% FBS and streptomycin (100 μg/mL) at 37 °C at a 5% CO2 atmosphere.
as §3

Cc1ccc(-n2c(-c3ccc(C(=O)NN)cc3)cc3c2cc(-c2ccc(C(=O)NN)cc2)n3-c2ccc(C)cc2)cc1 [Compound 1]
viability at 48 h, 0.1 µM ([1]; HF-P4, 100 nM): 101% | viability at 48 h, 0.5 µM ([1]; HF-P4, 500 nM): 106% | viability at 48 h, 0.75 µM ([1]; HF-P4, 750 nM): 94% | viability at 48 h, 1 µM ([1]; HF-P4, 1 uM): 105% | viability at 48 h, 2.5 µM ([1]; HF-P4, 2.5 uM): 94.3% | viability at 48 h, 5 µM ([1]; HF-P4, 5 uM): 80.7% | viability at 48 h, 7.5 µM ([1]; HF-P4, 7.5 uM): 77.3% | viability at 48 h, 10 µM ([1]; HF-P4, 10 uM): 70.5% | viability at 48 h, 15 µM ([1]; HF-P4, 15 uM): 67.1% | viability at 48 h, 20 µM ([1]; HF-P4, 20 uM): 64% | Cell viability % (HF-P4 cells; HF-P4, 100 nM, 0.1 µM): 110.5137% and 108.5444% | Cell viability % (HF-P4 cells; HF-P4, 500 nM, 0.5 µM): 109.6499% and 91.3% | Cell viability % (HF-P4 cells; HF-P4, 750 nM, 0.75 µM): 108.0378% and 98.14% | Cell viability % (HF-P4 cells; HF-P4, 1 uM, 1 µM): 114.0028% and 114.925% | Cell viability % (HF-P4 cells; HF-P4, 2.5 uM, 2.5 µM): 106.4486% and 88.2524% | Cell viability % (HF-P4 cells; HF-P4, 5 uM, 5 µM): 90.58% and 81.47% | Cell viability % (HF-P4 cells; HF-P4, 7.5 uM, 7.5 µM): 87.03% and 78.05% | Cell viability % (HF-P4 cells; HF-P4, 10 uM, 10 µM): 75.94% and 65.94% | Cell viability % (HF-P4 cells; HF-P4, 15 uM, 15 µM): 59.86% and 63.15% | Cell viability % (HF-P4 cells; HF-P4, 20 uM, 20 µM): 64.65% and 61.04% | IC50 (HF-P4 cells; Homo sapiens, MTT): > 20 µM | Cell viability % (Caov-3 cells; Caov-3, 100 nM, 48 h, repeats, 0.1 µM): 80.61% and 94.8% | Cell viability % (Caov-3 cells; Caov-3, 500 nM, 48 h, repeats, 0.5 µM): 91.36% and 100.9421% and 76.35% | Cell viability % (Caov-3 cells; Caov-3, 750 nM, 48 h, repeats, 0.75 µM): 95.41% and 77.67% | Cell viability % (Caov-3 cells; Caov-3, 1 uM, 48 h, repeats, 1 µM): 71.07% and 89.66% | Cell viability % (Caov-3 cells; Caov-3, 2.5 uM, 48 h, repeats, 2.5 µM): 71.79% and 55.75% | Cell viability % (Caov-3 cells; Caov-3, 5 uM, 48 h, repeats, 5 µM): 48.77% and 58.08% | Cell viability % (Caov-3 cells; Caov-3, 7.5 uM, 48 h, repeats, 7.5 µM): 51.68% and 65.52% | Cell viability % (Caov-3 cells; Caov-3, 10 uM, 48 h, repeats, 10 µM): 53.56% and 43.67% | Cell viability % (Caov-3 cells; Caov-3, 15 uM, 48 h, repeats, 15 µM): 35.1% and 41.9% | Cell viability % (Caov-3 cells; Caov-3, 20 uM, 48 h, repeats, 20 µM): 35.73% and 39.69% | viability at 0.1 µM (Caov-3 cells; Homo sapiens, Caov-3, 48 h, Caov-3, 100 nM, repeats, read-out: Cell viability %): 97.9% | viability at 0.75 µM (Caov-3 cells; Homo sapiens, Caov-3, 48 h, Caov-3, 750 nM, repeats, read-out: Cell viability %): 78.5% | viability at 1 µM (Caov-3 cells; Homo sapiens, Caov-3, 48 h, Caov-3, 1 uM, repeats, read-out: Cell viability %): 81.2% | viability at 2.5 µM (Caov-3 cells; Homo sapiens, Caov-3, 48 h, Caov-3, 2.5 uM, repeats, read-out: Cell viability %): 55.9% | viability at 5 µM (Caov-3 cells; Homo sapiens, Caov-3, 48 h, Caov-3, 5 uM, repeats, read-out: Cell viability %): 50.9% | viability at 7.5 µM (Caov-3 cells; Homo sapiens, Caov-3, 48 h, Caov-3, 7.5 uM, repeats, read-out: Cell viability %): 56.4% | viability at 10 µM (Caov-3 cells; Homo sapiens, Caov-3, 48 h, Caov-3, 10 uM, repeats, read-out: Cell viability %): 45.1% | viability at 15 µM (Caov-3 cells; Homo sapiens, Caov-3, 48 h, Caov-3, 15 uM, repeats, read-out: Cell viability %): 45.9% | viability at 20 µM (Caov-3 cells; Homo sapiens, Caov-3, 48 h, Caov-3, 20 uM, repeats, read-out: Cell viability %): 28.5% | IC50 (Caov-3 cells; Homo sapiens, Caov-3, MTT, 48 h): 6.48 µM
